According to US20080262054A1, “Pharmaceutical Composition Containing Thiazolidinedione Compound” (priority 2005, published 2008):
Structures can show the parent of a compound that is named as a salt.

Columns and labels:
[1] = Dissolution Rate Test 1 of Compound A (Test Example 1); format: physicochemical; conditions: JP first fluid, 37° C.
Description: About 40 mg of Compound A or a monohydrate of Compound A and a formulation excipient [one excipient is selected from the following excipients: 377.6 mg of lactose (Borculo Domo Ingredients), 78.0 mg of croscarmellose sodium (Ac-Di-Sol, FMC International), 15.6 mg of hydroxypropyl cellulose (HPC-L, Nippon Soda Co., Ltd.), 5.2 mg of magnesium stearate (NOF Corp.) and 0.112 mg of yellow ferric oxide (Kishi Kasei Co., Ltd.)] were added to 200 ml of Japanese Pharmacopoeia (JP) first fluid (7.0 ml of hydrochloric acid and water added to 2.0 g of sodium chloride followed by dissolving and bringing to a volume of 100 ml, normally used as a test liquid that imitates disintegration and elution of chemicals in the stomach) followed by stirring with a stirrer at 37° C. in a 300 ml conical beaker. 10 ml-samples were collected after 30 minutes, 1 hour, 3 hours and 6 hours followed by filtration using Acrodisk LC13 (PVDF, Gelman Science, Inc.). After discarding the first 3 ml, the next 7 ml were removed into a test tube. 5 ml of the sample in the test tube was taken with a whole pipette and transferred to a test tube containing 2 ml of methanol followed by mixing.
(§1) Quantification was carried out using HPLC, and solubility was determined from a calibration curve generated according to the method described below.
The calibration curve was generated by preparing methanol standard solutions of Compound A at concentrations of 400, 100 and 20 μg/ml, followed by the addition of 5 ml of JP first fluid to 2 ml of each standard solution, mixing and quantifying by HPLC.
Analytical column: L-column ODS (4.6 mm ID×15 cm, Chemicals Evaluation and Research Institute, Japan)
Mobile phase: 0.01 mol/1 mixture of acetate buffer (pH 5.0) and acetonitrile (13:7)
Column temperature: 40° C.
Detector: Ultraviolet absorption spectrophotometer (measuring wavelength: 290 nm)

[2] = Dissolution Rate Test 2 of Compound A (Test Example 2); format: physicochemical; conditions: JP first fluid, 37° C., subsequently to 1 hour (3 hours, 6 hours); FIG. 2
Description: Dissolution Rate Test 2 of 5-{4-[(6-methoxy-1-methyl-1H-benzimidazol-2-yl)methoxy]benzyl}thiazolidine-2,4-dione hydrochloride (Compound A) About 40 mg of Compound A or a monohydrate of Compound A and a formulation excipient [one excipient is selected from the following excipients: 23.9 mg of OPADRY II, 17.2 mg of polyvinyl alcohol (GOHSENOL GL-05, Nippon Synthetic Chemical Industry Co., Ltd.), and 23.9 mg of OPAGLOS 2] were added to 200 ml of Japanese Pharmacopoeia (JP) first fluid (7.0 ml of hydrochloric acid and water added to 2.0 g of sodium chloride followed by dissolving and bringing to a volume of 100 ml, normally used as a test liquid that imitates disintegration and elution of chemicals in the stomach) followed by stirring with a stirrer at 37° C. in a 300 ml conical beaker. 10 ml-samples were collected after 30 minutes, 1 hour, 3 hours and 6 hours followed by filtration using Acrodisk LC13 (PVDF, Gelman Science, Inc.). […]
as §1
The calibration curve was generated by preparing methanol standard solutions of Compound A at concentrations of 400, 100 and 20 μg/ml, followed by the addition of 5 ml of JP first fluid to 2 ml of each standard solution, mixing and quantifying by HPLC. […]

[3] = stirring, samples after 30 minutes, 1 hour, 3 hours and 6 hours, HPLC, FIG. 1

solubility [1, 3] | solubility ([1]; subsequently to 1 hour (3 hours, 6 hours)) | solubility [2] | SMILES
extremely low |  |  | COc1ccc2nc(COc3ccc(CC4SC(=O)NC4=O)cc3)n(C)c2c1.Cl.O (stereo not shown) [monohydrate, 5-{4-[(6-methoxy-1-methyl-1H-benzimidazol-2-yl)methoxy]benzyl}thiazolidine-2,4-dione hydrochloride (Compound A) monohydrate]
decrease over time | decreased rapidly | decreased rapidly | COc1ccc2nc(COc3ccc(CC4SC(=O)NC4=O)cc3)n(C)c2c1 (stereo not shown) [Compound A, 5-{4-[(6-methoxy-1-methyl-1H-benzimidazol-2-yl)methoxy]benzyl}thiazolidine-2,4-dione hydrochloride]
